# B1: FleBt-FliB fusion protein (flagellin lysine methyltransferase FliB fused to the C-terminus of truncated FleB) (enzyme)
# chain: MKEITVTEPAFVTRFSCSGSACRDHCCKGWKITLDKTTVKKYLASKDTTIRTIAQDHIILLKKNNSHWGEIKLPSALGNCPYLDEDRLCRVQKTLGAKALSHTCSSFPRAHHTYKNEVRNSLSLACPEVTSRILNDPDAMALSEKTIIQQTFNTAPLFPAQQKLLNLFCLSLINHANSSTEAALYALIKFVMYAQKFAKIDDAALGELEQVYAALLEQLQTGVLAQELMNIAPDSKVKTSLVLQMQDYFRSLPLNRGSVILDHYIQCLLRVLTAEEGVSMEQKVSDIESSLARCLQANEQQKNWAFRNLILYKIWENNFPNQPNVDPLRALYIIVAEYAFIKLLTAASVHERGRIEWDDVTNIVYSFHSRSQHNSEVAKNFHRHIETVRTGDDLSMIHLLT
# notes: also called ftFliB; source: E. coli BL21 (DE3), purified (HisTrap HP, SEC); copies: 14
# Tests used:
# ftFliB (FleBt-FliB) [1] = target: T1, ftFliB (FleBt-FliB) (Salmonella enterica, UniProt Q56106); test: UV-vis, EPR, […] Mössbauer, iron and sulfur content; format: binding; design: N-terminal His6 and Yersinia enterocolitica FleB residues 54-332 (FleBt) solubility tag kept, fused to FliB; E. coli BL21(DE3); ~76 kDa; about 14-mer; details: anaerobically reconstituted protein; CX4CX3CC motif
# ftFliB (FleBt-FliB) [2] = target: T1, ftFliB (FleBt-FliB); test: biochemical
# [3] = target: the molecule itself; test: SEC-MALS; TSK-GEL BioAssist G4SWXL column, buffer A, 0.5 mL/min; MALS with RI and UV 280 nm detectors
molecule,measurement,setting,value
[S]12[Fe]3[S]4[Fe]1[S]1[Fe]2[S]3[Fe]41 [[4Fe-4S] cluster],"UV-vis, EPR, 57Fe Mössbauer, iron and sulfur content",ftFliB (FleBt-FliB) [1],indicating the presence of one [4Fe-4S] cluster in FliB
"C[S+](CC[C@H](N)C(=O)O)C[C@H]1O[C@@H](n2cnc3c(N)ncnc32)[C@H](O)[C@@H]1O (stereo partly drawn) [SAM, S-adenosylmethionine]",Kd,ftFliB (FleBt-FliB) [2],10.5 ± 3.41 µM
B1,stoichiometry N,[3],~14 subunits per oligomer
